Test results from paper PMC11944884, “Bioactive Secondary Metabolites of Two Chinese Edible Boletes, Phlebopus portentosus and Butyriboletus roseoflavus” (Molecules, 2025).

Assays:
BEL7402 = experiment: Cytotoxicity CCK-8 assay, BEL7402; type: cell-based; settings: Homo sapiens, Bel-7402
PC-3 = experiment: Cytotoxicity CCK-8 assay, PC-3; type: cell-based; settings: Homo sapiens
Hela229 = experiment: Cytotoxicity CCK-8 assay, Hela229; type: cell-based; settings: Homo sapiens, HeLa 229
MCF-7/ADR = experiment: Cytotoxicity CCK-8 assay, MCF-7/ADR; type: cell-based; settings: Homo sapiens, NCI/ADR-RES
SGC7901 = experiment: Cytotoxicity CCK-8 assay, SGC7901; type: cell-based; settings: Homo sapiens, SGC-7901
SH-SY5Y cells [1] = experiment: Neuroprotection against Aβ25−35-induced neurotoxicity (MTT); settings: Homo sapiens, SH-SY5Y, read-out: Cell viability (% of control group)
Method: The cells, obtained from the American Type Culture Collection (ATCC, Manassas, VA, USA) at high passages, maintained at 37 °C in a humidified atmosphere containing 5% CO2. Cells were seeded into 96-well plates at a density of 2 × 10^5 cells/mL in MEM/F12 medium supplemented with 10% (v/v) fetal bovine serum. Experiments were carried out after 24 h of seeding. Test compounds and positive control (epigallocatechin-3-gallate, EGCG; NAC) were made to 10^−2 M stock solutions with DMSO and then diluted to corresponding concentrations with cell culture medium. Cells were incubated with test compounds or EGCG (10 μM, Sigma, St. Louis, MO, USA, purity > 98%)/NAC for 2 h, followed by exposure to 80 μM H2O2 or 10 μM Aβ25−35 for another 24 h without medium replacement. After treatment, 10 μL of MTT (5 mg/mL) was added to each well and incubated at 37 °C for 3 h. The cells were finally lysed with 100% DMSO, and the absorbance of MTT formazan was measured at 490 nm using a microplate reader.

SH-SY5Y cells [2] = experiment: Neuroprotection against H2O2-induced neurotoxicity (MTT); type: cell-based; settings: Homo sapiens, SH-SY5Y, read-out: Cell viability (% of control group)
[3] = system: influenza virus B/Victoria strain; experiment: microbe, parasite or virus in culture; type: cell-based; settings: MDCK
influenza virus A/H3N2 = experiment: microbe, parasite or virus in culture; type: cell-based, influenza virus A (H3N2 strain); settings: for EC50: MDCK
[4] = system: A/H3N2 and B/Victoria strains; experiment: microbe, parasite or virus in culture; type: cell-based; settings: Influenza A virus, range over compounds 22 and 26 and both strains
[5] = Influenza A virus, H3N2, MDCK, read-out: CPE inhibition

O=C1NCCc2c1[nH]c1ccccc21 [Compound 9, 1,2,3,4-tetrahydro-1-oxo-β-carboline] was tested, and the IC50 (BEL7402; BEL7402) was 41.5 µM, the inhibition at 6.25 µM (BEL7402; BEL7402, 6.25 μM, 48 h, read-out: Cell proliferation inhibition (%)) was 12.5% and the inhibition at 12.5 µM (BEL7402; BEL7402, 12.5 μM, 48 h, read-out: Cell proliferation inhibition (%)) was 24.4%. The inhibition at 25 µM (BEL7402; BEL7402, 25 μM, 48 h, read-out: Cell proliferation inhibition (%)) was 44.4%, the inhibition at 50 µM (BEL7402; BEL7402, 50 μM, 48 h, read-out: Cell proliferation inhibition (%)) was 56.4% and the inhibition at 100 µM (BEL7402; BEL7402, 100 μM, 48 h, read-out: Cell proliferation inhibition (%)) was 63.6%. For the same compound, the IC50 (PC-3; PC-3) was over 50 µM, the inhibition at 6.25 µM (PC-3; PC-3, 6.25 μM, 48 h, read-out: Cell proliferation inhibition (%)) was 3% and the inhibition at 12.5 µM (PC-3; PC-3, 12.5 μM, 48 h, read-out: Cell proliferation inhibition (%)) was 1.7%. The inhibition at 25 µM (PC-3; PC-3, 25 μM, 48 h, read-out: Cell proliferation inhibition (%)) was 4%, the inhibition at 50 µM (PC-3; PC-3, 50 μM, 48 h, read-out: Cell proliferation inhibition (%)) was 2.6% and the inhibition at 100 µM (PC-3; PC-3, 100 μM, 48 h, read-out: Cell proliferation inhibition (%)) was 14%. For the same compound, the IC50 (Hela229; Hela229) was 10.8 µM, the inhibition at 6.25 µM (Hela229; Hela229, 6.25 μM, 48 h, read-out: Cell proliferation inhibition (%)) was 37.1% and the inhibition at 12.5 µM (Hela229; Hela229, 12.5 μM, 48 h, read-out: Cell proliferation inhibition (%)) was 53.7%. It also gave an inhibition at 25 µM (Hela229; Hela229, 25 μM, 48 h, read-out: Cell proliferation inhibition (%)) of 68.7%, an inhibition at 50 µM (Hela229; Hela229, 50 μM, 48 h, read-out: Cell proliferation inhibition (%)) of 83.3% and an inhibition at 100 µM (Hela229; Hela229, 100 μM, 48 h, read-out: Cell proliferation inhibition (%)) of 88%. It also gave an IC50 (MCF-7/ADR) of over 50 µM, an inhibition at 6.25 µM (MCF-7/ADR; 6.25 μM, 48 h, read-out: Cell proliferation inhibition (%)) of -0.9% and an inhibition at 12.5 µM (MCF-7/ADR; 12.5 μM, 48 h, read-out: Cell proliferation inhibition (%)) of 1.7%. For the same compound, the inhibition at 25 µM (MCF-7/ADR; 25 μM, 48 h, read-out: Cell proliferation inhibition (%)) was 3.4%, the inhibition at 50 µM (MCF-7/ADR; 50 μM, 48 h, read-out: Cell proliferation inhibition (%)) was 2.9% and the inhibition at 100 µM (MCF-7/ADR; 100 μM, 48 h, read-out: Cell proliferation inhibition (%)) was 2.5%. For the same compound, the IC50 (SGC7901; SGC7901) was over 50 µM, the inhibition at 6.25 µM (SGC7901; SGC7901, 6.25 μM, 48 h, read-out: Cell proliferation inhibition (%)) was 13.2% and the inhibition at 12.5 µM (SGC7901; SGC7901, 12.5 μM, 48 h, read-out: Cell proliferation inhibition (%)) was 17.5%. The inhibition at 25 µM (SGC7901; SGC7901, 25 μM, 48 h, read-out: Cell proliferation inhibition (%)) was 27.1%, the inhibition at 50 µM (SGC7901; SGC7901, 50 μM, 48 h, read-out: Cell proliferation inhibition (%)) was 37.4% and the inhibition at 100 µM (SGC7901; SGC7901, 100 μM, 48 h, read-out: Cell proliferation inhibition (%)) was 44.3%.

Compound O=C1O/C(=C(/C(=O)O)c2ccc(O)cc2)C(O)=C1c1ccc(O)c(O)c1 [Compound 18, xerocomic acid] has a viability at 2.5 µM (SH-SY5Y cells [1]) of 78.2 ± 1.53%, a viability at 5 µM (SH-SY5Y cells [1]) of 77.6 ± 1.97% and a viability at 10 µM (SH-SY5Y cells [1]) of 80.3 ± 1.39%. The viability at 20 µM (SH-SY5Y cells [1]) was 81.2 ± 1.79% and the viability at 40 µM (SH-SY5Y cells [1]) was 90.5%.

Work on O=C1O/C(=C(/C(=O)O)c2ccc(O)c(O)c2)C(O)=C1c1ccc(O)c(O)c1 [Compound 19, variegatic acid] yielded a viability at 2.5 µM (SH-SY5Y cells [2]) of 56.4 ± 1.79%, a viability at 5 µM (SH-SY5Y cells [2]) of 59.3 ± 2.94% and a viability at 10 µM (SH-SY5Y cells [2]) of 63.7 ± 2.8%. For the same compound, the viability at 20 µM (SH-SY5Y cells [2]) was 71.5% and the viability at 40 µM (SH-SY5Y cells [2]) was 81.9%.

Compound CC(C)[C@@H](C)/C=C/[C@@H](C)[C@H]1CC[C@H]2C3=C[C@@H](O)[C@@]4(O)C[C@@H](O)CC[C@]4(C)[C@H]3CC[C@]12C [Compound 22, cerevisterol] has an EC50 [3] of 6.6 µM, an IC50 [3] of 6.6 µM and an inhibition at 1.56 µM ([3]; read-out: CPE inhibition) of 0%. For the same compound, the inhibition at 3.13 µM ([3]; read-out: CPE inhibition) was 0%, the inhibition at 6.25 µM ([3]; read-out: CPE inhibition) was 10% and the inhibition at 12.5 µM ([3]; read-out: CPE inhibition) was 75%. For the same compound, the inhibition at 25 µM ([3]; read-out: CPE inhibition) was 75%, the IC50 (influenza virus A/H3N2; Influenza A virus, H3N2, MDCK) was 9.6 µM and the inhibition at 1.56 µM (influenza virus A/H3N2; [5]) was 0%. The inhibition at 3.13 µM (influenza virus A/H3N2; [5]) was 0%, the inhibition at 6.25 µM (influenza virus A/H3N2; [5]) was 0% and the inhibition at 12.5 µM (influenza virus A/H3N2; [5]) was 75%. The inhibition at 25 µM (influenza virus A/H3N2; [5]) was 75%, the EC50 (influenza virus A/H3N2) was 9.6 µM and the EC50 [4] was 3.6 to 9.6 µM.

In the case of CC(C)[C@@H](C)/C=C/[C@@H](C)[C@H]1CC[C@H]2C3=C(CC[C@]12C)[C@@]1(C)CC[C@H](O)C[C@@]12O[C@H]2[C@H]3O [Compound 26, (22E,24R)-5α,6α-epoxy-ergosta-8,22-dien-3β,7α-diol], the EC50 [3] is reported as 3.6 µM, the IC50 [3] is reported as 3.6 µM and the inhibition at 0.78 µM ([3]; read-out: CPE inhibition) is reported as 6.6%. The inhibition at 1.56 µM ([3]; read-out: CPE inhibition) was 15%, the inhibition at 3.13 µM ([3]; read-out: CPE inhibition) was 25% and the inhibition at 6.25 µM ([3]; read-out: CPE inhibition) was 75%. For the same compound, the inhibition at 12.5 µM ([3]; read-out: CPE inhibition) was 75%, the IC50 (influenza virus A/H3N2; Influenza A virus, H3N2, MDCK) was 4 µM and the inhibition at 0.78 µM (influenza virus A/H3N2; [5]) was 3.3%. The inhibition at 1.56 µM (influenza virus A/H3N2; [5]) was 15%, the inhibition at 3.13 µM (influenza virus A/H3N2; [5]) was 27.5% and the inhibition at 6.25 µM (influenza virus A/H3N2; [5]) was 75%. For the same compound, the inhibition at 12.5 µM (influenza virus A/H3N2; [5]) was 82.5%, the EC50 (influenza virus A/H3N2) was 4 µM and the EC50 [4] was 3.6 to 9.6 µM.
